# From ChEMBL document CHEMBL4627280, “Discovery of disubstituted xylylene derivatives as small molecule direct inhibitors of Keap1-Nrf2 protein-protein interaction” (Bioorg Med Chem, 2020)
# Legend:
# [1] = Metabolic stability in human liver microsomes assessed as parent compound remaining at 0.1 mM measured after 90 mins by LC/MS analysis; assay type: ADME, Microsome; settings: read-out: Stability
# [2] = biological target: Kelch-like ECH-associated protein 1 (Homo sapiens, UniProt Q14145); experiment: Inhibition of FITC-LDEETGEFL-NH2 binding to recombinant human Keap1 Kelch domain (321 to 609 residues) expressed in Escherichia Coli BL21(DE3)pLysS cells centrifuged for 2 mins followed by 30 mins incubation under shaking condition by fluorescence polarization assay
# Sequence of Kelch-like ECH-associated protein 1 (Q14145 whole entry, the tested form may be a part): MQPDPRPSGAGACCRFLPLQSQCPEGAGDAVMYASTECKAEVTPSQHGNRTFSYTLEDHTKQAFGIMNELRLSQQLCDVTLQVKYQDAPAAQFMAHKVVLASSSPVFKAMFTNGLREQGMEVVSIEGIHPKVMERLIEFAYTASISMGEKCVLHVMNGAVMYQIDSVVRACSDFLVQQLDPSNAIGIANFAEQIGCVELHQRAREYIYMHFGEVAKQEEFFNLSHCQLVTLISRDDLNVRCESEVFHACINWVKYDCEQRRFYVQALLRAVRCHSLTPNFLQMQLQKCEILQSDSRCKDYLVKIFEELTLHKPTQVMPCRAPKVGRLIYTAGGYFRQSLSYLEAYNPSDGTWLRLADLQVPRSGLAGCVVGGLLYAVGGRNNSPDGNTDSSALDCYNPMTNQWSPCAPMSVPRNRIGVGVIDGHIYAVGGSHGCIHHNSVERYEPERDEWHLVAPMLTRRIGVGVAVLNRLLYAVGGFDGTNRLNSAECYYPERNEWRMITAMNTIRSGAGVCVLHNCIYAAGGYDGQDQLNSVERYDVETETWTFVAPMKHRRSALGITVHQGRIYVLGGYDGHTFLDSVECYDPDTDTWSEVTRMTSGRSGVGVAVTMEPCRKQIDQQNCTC
"remaining at 1.5 h, 100 µM [1]",IC50 [2],SMILES
56.9%,–,COc1ccc(S(=O)(=O)N(CC(=O)O)c2ccc(N(CC(=O)O)S(=O)(=O)c3ccc(OC)cc3)c3ccccc23)cc1
97.7%,2.3 µM,COc1ccc(S(=O)(=O)N(CC(=O)O)Cc2ccccc2CN(CC(=O)O)S(=O)(=O)c2ccc(OC)cc2)cc1
98.2%,–,COc1ccc(S(=O)(=O)N(Cc2ccccc2CN([C@@H](C)C(=O)O)S(=O)(=O)c2ccc(OC)cc2)[C@@H](C)C(=O)O)cc1
